Where two headings read alike, the source gives them in different places.

For data set [1] the following is noted: for Patients requiring dose delay / Patients with dose reduction: irinotecan; for Patients requiring dose delay: cycles 1 and 2; for Patients with dose reduction: first two cycles. The protocol:
Seven days before the start of cycle 1, a single day's dose of sunitinib was administered to allow for the collection of samples for pharmacokinetic analysis.
In addition, prophylactic use of hematopoietic growth factors to support neutrophil or platelet counts was not recommended in cycle 1, but could be used in subsequent cycles.
Patients underwent regular physical examinations (usually on day 1 of each treatment cycle), laboratory tests (blood, usually on days 1 and 15 of each cycle, and urinalysis) and 12-lead electrocardiogram (at screening, at steady state level of sunitinib on cycle 2 day 1, and as clinically indicated in subsequent cycles). […] Response Evaluation Criteria for Solid Tumors version 1.0 ([Therasse et al 2000]) was used, requiring repeat imaging studies ⩾4 weeks after the initial documentation of response.

Data set [2] can be described thus: Plasma pharmacokinetics of irinotecan and SN-38 in patients. The conditions noted are these: for Tlast: median; for Tmax: median (range), n=18–20 paired. The protocol: (§1) In cycle 1, sunitinib administration started on day 2. Both agents were evaluated in combination on cycle 2 day 1; samples were drawn before drug administration and at 1, 1.5, 2, 4, 6, 8, 10, and 24 hours post-dose.
(§2) Pharmacokinetic parameter values were calculated for each subject by noncompartmental analysis of concentration–time data using WinNonlin version 4.1 (http://pharmacy.ucsf.edu/irc/pdfs/wul_users_guide.pdf). […] Summary descriptives of pharmacokinetic values were presented only for paired observations with respect to each analyte. In the case where the dose for one of the paired observations was different from the other observation, dose correction to the intended dose was performed (correction factor: intended dose/actual dose). Dose correction to the MTD was performed. Individual patient trough plasma concentrations were summarised per cycle and study day. All concentrations that were below the limits of quantitation (BLQ) were set to zero before computation of descriptive statistics (BLQ values were excluded from the calculations of geometric means and the associated 95% confidence intervals).
(§3) Standard plasma pharmacokinetic parameters were used including the maximum plasma concentration (Cmax), time to Cmax (Tmax), area under the plasma concentration–time curve to the time of the last measurable concentration (AUC0–last) or infinity (AUC0–∞), clearance, and terminal elimination half-life (t1/2).

A short description of data set [3]: Plasma pharmacokinetics of sunitinib, SU012662 and total drug in patients. The conditions noted are these: human, in vivo. The protocol: Pharmacokinetic analysis was carried out in a central laboratory, and pharmacokinetic parameter values were estimated using noncompartmental methods. Human potassium EDTA plasma pharmacokinetic samples were analysed for sunitinib and SU012662 and total drug (sunitinib plus SU012662) concentrations at BASi (West Lafayette, IN, USA) with the use of a validated, sensitive, and specific liquid chromatographic-tandem mass spectrometric method.
as §1, §2, §3

[4] abbreviates: C2D1/C1D1 (sunitinib+irinotecan relative to irinotecan alone), both cohorts combined.

One may read the AUC(0-t) as the area under the concentration-time curve up to a stated or last time point. Broadly, the AUC(0-inf) is the area under the concentration-time curve extrapolated to infinity. As for `CCc1c2c(nc3ccc(OC(=O)N4CCC(N5CCCCC5)CC4)cc13)-c1cc3c(c(=O)n1C2)COC(=O)[C@]3(O)CC` [Irinotecan, irinotecan], the “Maximum tolerated dose (MTD)” value in data set [1] (irinotecan day 1 of 21-day cycle, with sunitinib 25 mg per day days 1–14) stood at 250 mg m^−2. For the same molecule, the “Patients requiring dose delay” value is recorded as “four” in data set [1] (cohort 1) and “one” in data set [1] (cohort 2). Further, the entries for the “Patients with dose reduction” value in data set [1] (cohort 1) and in data set [1] (cohort 2) were “six” and “one”, respectively. The Tlast in data set [2] (Irinotecan alone C1D1) and in data set [2] (Sunitinib+irinotecan C2D1) was 24.0 h each time. Moreover, the “AUC0–last” value in data set [2] (human, in vivo) is 16.9 (33.3) μg h ml^−1. For the same molecule, the “AUC0–∞” value in data set [2] (human, in vivo) is 18.1 (34.0) μg h ml^−1. For the same molecule, the Cmax in data set [2] (human, in vivo, 250 mg) was 2900 ng/mL. Also, the AUC(0-t) in data set [2] (human, in vivo, AUC0–last) came out at 14900 ng·h/mL. The AUC(0-inf) in data set [2] (human, in vivo, AUC0–∞) came to 15900 ng·h/mL.
With `CCc1c2c(nc3ccc(O)cc13)-c1cc3c(c(=O)n1C2)COC(=O)[C@]3(O)CC` [SN-38], in data set [2] (setting [4]), the “Geometric mean ratio of AUC0–last” value is listed as 1.20. Besides, in data set [2] (setting [4]), the “Geometric mean ratio of Cmax” value came to 1.13. Also, the “AUC0–last” value is listed as 0.31 (61.7) μg h ml^−1 in data set [2] (Irinotecan alone C1D1, mean (CV%)) and 0.36 (52.8) μg h ml^−1 in data set [2] (Sunitinib+irinotecan C2D1, mean (CV%)). Further, the Cmax in data set [2] (Irinotecan alone C1D1, mean (CV%), dose corrected to 250 mg m^−2) is on record as 0.03 (51.4) μg ml^−1; in data set [2] (Sunitinib+irinotecan C2D1, mean (CV%), dose corrected to 250 mg m^−2), 0.04 (50.0) μg ml^−1. Moreover, the Tlast in data set [2] (Irinotecan alone C1D1) and in data set [2] (Sunitinib+irinotecan C2D1) was 24.0 h in each case. Also, the Tmax in data set [2] (Irinotecan alone C1D1) is reported as 1.1 (1.0–4.2) h; in data set [2] (Sunitinib+irinotecan C2D1) it was 1.5 (0.9–4.1) h.
In the case of `CCNCCNC(=O)c1c(C)[nH]c(/C=C2\C(=O)Nc3ccc(F)cc32)c1C` [SU012662], in data set [3], the “AUC0–last” value is reported as 53.2 (30.9) ng h ml^−1, the Cmax was 3.6 (32.5) ng ml^−1 and the Tlast turned out to be 24.0 h. For the same molecule, in data set [3] (25 mg), the “AUC0–last” value is on record as 38.6 (54.4) ng h ml^−1 and the Cmax is reported as 2.4 (51.4) ng ml^−1.
Consider `CCN(CC)CCNC(=O)c1c(C)[nH]c(/C=C2\C(=O)Nc3ccc(F)cc32)c1C` [Sunitinib, sunitinib], for which, in data set [1] (sunitinib days 1–14 of 21-day cycle, with irinotecan 250 mg m^−2 day 1), the “Maximum tolerated dose (MTD)” value is reported as 25 mg per day. Moreover, in data set [3], the AUC(0-t) amounted to 226 ng·h/mL, the Cmax was 13 ng/mL and the Tlast turned out to be 24.0 h. In data set [3] (25 mg), the AUC(0-t) was determined as 266 ng·h/mL and the Cmax was 16.3 ng/mL.

For the origin of these results see paper PMC2965864 (British Journal of Cancer, 2010).
